This experiment addresses T1, Recombinant human renin (Homo sapiens, UniProt P00797).
T1 construct: made in house; host or cells: Chinese Hamster Ovary cells
T1 sequence (P00797 67-406): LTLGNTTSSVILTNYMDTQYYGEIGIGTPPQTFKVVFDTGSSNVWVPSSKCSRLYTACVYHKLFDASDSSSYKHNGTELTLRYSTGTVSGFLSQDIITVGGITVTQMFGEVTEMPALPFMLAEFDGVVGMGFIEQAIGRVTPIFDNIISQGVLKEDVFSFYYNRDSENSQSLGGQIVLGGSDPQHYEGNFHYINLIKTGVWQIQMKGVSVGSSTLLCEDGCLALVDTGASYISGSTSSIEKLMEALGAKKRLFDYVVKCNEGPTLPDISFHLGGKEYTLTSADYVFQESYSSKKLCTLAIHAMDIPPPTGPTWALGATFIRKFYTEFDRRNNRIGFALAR
Nature of the experiment: FRET assay of inhibition of renin activity. Type of experiment: biochemical. The following applies: recombinant human renin 4 nM, 1 h at RT, pH 7.4. Here is the method: Recombinant human renin (expressed in Chinese Hamster Ovary cells and purified using standard methods) at 4 nM concentration is incubated with test compound at various concentrations for 1 h at RT in 0.1 M Tris-HCl buffer, pH 7.4, containing 0.05 M NaCl, 0.5 mM EDTA and 0.05% CHAPS. Synthetic peptide substrate Arg-Glu(EDANS)-Ile-His-Pro-Phe-His-Leu-Val-Ile_His_Thr-Lys(DABCYL)-Arg9 is added to a final concentration of 2 μM and increase in fluorescence is recorded at an excitation wave-length of 340 nm and at an emission wave-length of 485 nm in a microplate spectro-fluorimeter. IC50 values are calculated from percentage of inhibition of renin activity as a function of test compound concentration (Fluorescence Resonance Energy Transfer, FRET, assay).

Where a name gives a salt, the structure may show the parent alone.

In the case of `c1ccc(-c2cccc([C@H]3CCNC[C@@H]3OCc3ccc4ccccc4c3)c2)cc1` (relative stereo) [Example 1, (3R*,4R*)-4-Biphenyl-3-yl-3-(naphthalen-2-ylmethoxy)-piperidine hydrochloride], the IC50 was about 70 nM.

The values above are taken from patent US7754727B2, “4-phenylpiperidine derivatives as renin inhibitors” (Novartis AG, priority 2003, dated 2010).
